# Laboratory results published in US20080267894A1, “Acerola Fruit-Derived Pectin and Its Application” (NICHIREI FOODS INC., priority 2005, published 2008).
# Tests used:
# [1] = Anti-oxidation activity (rhodan-iron method) using linoleic acid, suppression of auto-oxidation; format: biochemical; conditions: for Absorbance, auto-oxidation of linoleic acid: specimen 0.02% (W/W)
# Description: Linoleic acid is unsaturated fatty acid that is contained richly also in human body. The unsaturated fatty acid is characterized by being auto-oxidized when it is allowed to stand, so as to be lipid peroxide. In this experiment, linoleic acid is mixed with a sample, the mixture is allowed to stand at 40° C., and then antioxidative activities are evaluated based on increases in the amounts of lipid oxides purified from linoleic acid. […] The resulting mixture was put into a brown screw cap bottle, so that 10 ml of a reaction solution was prepared. When a specimen was a water-insoluble component, the specimen was dissolved in the above 99.5% ethanol, so that a reaction solution was prepared. When a specimen was a water-soluble component, the specimen was dissolved in the above distilled water, so that a reaction solution was prepared. In addition, in this test method, the term “specimen concentration” indicates a specimen concentration in 2 ml of 99.5% ethanol or 2 ml of distilled water. Therefore, the final concentration of each specimen in each reaction solution was one fifth of the predetermined concentration. Furthermore, regarding specimens positive for antioxidative activities, similar procedures were performed for BHA so that it is contained in appropriate amounts in reaction solutions. Positive control specimens were thus prepared. A control used herein was prepared by adding 2 ml of 99.5% ethanol and 2 ml of distilled water alone to the reaction solution. Such reaction solution stored in the dark at 40° C. was used for the main test and such reaction solution stored at 4° C. was used for a blank test. Test substances were sampled with time and then measured as described below. Tests were conducted for 2 or more weeks. 0.1 ml of 2×10^2M ferrous chloride (3.5% hydrochloric acid solution) was added to the mixture of 0.1 ml of a test substance, 9.7 ml of 75% ethanol, and 0.1 ml of 30% ammonium rhodanate aqueous solution. At precisely 3 minutes after addition, absorbance was measured at 500 nm. Absorbance was similarly measured in a blank test: Δ absorbance=[absorbance in main test]−[absorbance in blank test]. The higher the absorbance, the higher the amount of oxidized lipids. […] Furthermore, when oxidation of a sample is initiated, the absorbance increases. After the absorbance reaches a peak, the absorbance decreases as the amount of a sample to be oxidized decreases. It can be said that the sooner the absorbance reaches a peak, the weaker the anti-oxidation activity. Furthermore, anti-oxidation activities of the samples were compared in terms of oxidation ratio (%). Oxidation ratio (%) was obtained by the following formula using the oxidation (absorbance) of the control as 100%. Oxidation ratio (%)=([Δ absorbance of sample]/[Δ absorbance of control])×100 [Formula 1] It can be said that the higher the oxidation ratio (%), the lower the anti-oxidation activity.
# [2] = DPPH radical scavenging activity test (Test method 1.2); format: biochemical; conditions: Table 7
# Description: Antioxidative activities were evaluated using an ethanol solution of diphenyl-p-picrylhydradil (DPPH), which is a stable radical. 1200 μl of ethanol and 400 μl of a specimen (adjusted to any concentration) were mixed with 1600 μl of a 250 mM acetate buffer (pH=5.5), followed by preincubation at 30° C. for 5 minutes. 800 μl of a 500 μM DPPH/ethanol solution was added to the solution and mixed therewith, and the resultant was then allowed to stand at 30° C. for 30 minutes. Absorbance was measured at 517 nm. A similar procedure was performed also for α-tocopherol and then the result was used as a positive control. The control used herein was prepared by performing a similar procedure using a solvent instead of a sample solution. Radical scavenging ratio was calculated by the following equation using the thus measured absorbances.
# Scavenging ratio (%)=(1−[absorbance of sample]/[absorbance of control])×100
# The above measurement for finding scavenging ratios was performed by varying stepwise the concentration of a sample in a solution. The concentration of a sample solution leading to a 50% DPPH radical scavenging ratio was found and designated the concentration required for scavenging 50% of the DPPH radicals. Thus, it can be said that the lower the numerical value, the higher the radical scavenging ability.
# tyrosinase = assay: Effect of inhibiting tyrosinase (skin-whitening activity); format: biochemical, mushroom
# Description: A test concerning activity of inhibiting tyrosinase, which is an enzyme that generates a melanin pigment, was conducted by the following procedure. • (1) *4 mL of an L-DOPA aqueous solution, **4 mL each of samples diluted at different concentrations, and 2 mL of a 0.2 M phosphate buffer (pH 6.8) were mixed. The mixture was heated in a thermostatic bath at 37° C. […] Changes in absorbance were automatically measured for over 20 seconds from the start to the end at intervals of 0.1 second. The rise velocity of absorbance between 4 seconds and 10 seconds after the start of measurement was calculated. *Tyrosinase solution: Solution obtained by dissolving tyrosinase (SIGMA) derived from a mushroom in a 0.2 M phosphate buffer (pH 6.8) at a concentration of 300 units/mL and then conducting filtering using a 0.2 μm filter • (3) To obtain a blank value, measurement was performed using a 0.2 M phosphate buffer instead of a sample and then tyrosinase-inhibiting activity was calculated by the equation below. Furthermore, a substance that could not be dissolved in a phosphate buffer was dissolved in dimethyl sulfoxide (DMSO), diluted with a phosphate buffer, and then measured. […]
# Tyrosinase activity inhibition ratio (%)=100−((absorbance rise velocity of sample)/(absorbance rise velocity of blank))×100
# animal cells [3] = conditions: cited from earlier work
# brown guinea pigs = assay: Skin-whitening test: suppression of pigmentation after UV irradiation; format: in vivo; conditions: oral, dose of ascorbic acid 300 mg/kg animal weight/day, 42 days; UVB on days 0, 2, 4; observed days 7 to 42
# Description: The effect of suppressing pigmentation after UV irradiation was examined using brown guinea pigs (SPF). The brown guinea pigs are of an animal species that undergoes pigmentation because of UV irradiation in a manner similar to humans and of a line that has been clearly maintained. Six guinea pigs were used for each group in this test. To promote pigmentation, UV (UVB) irradiation was performed from a distance of 40 cm using five SE lamps (wavelength between 250 nm and 350 nm, […] Corporation) installed in an UV irradiation apparatus (Y-798-II, Orion Electric Co., Ltd.). […] This time was designated the time for UV irradiation in this test. Each irradiation site was a 2 cm×2 cm square area located on either the left or right across the midline of the back of a guinea pig that had been sheared using electric clippers and then shaved using an electric shaver. […] Pigmentation was measured as follows. Before the initial administration (before irradiation) on the day of the initiation of administration and on days 7, 14, 21, 28, 35, and 42 after initial administration, L value (lightness) of irradiated sites were measured using a colorimeter (CR-300, Minolta Co., Ltd.) and then the ΔL value (L value on the day of observation-L value before irradiation) was found. […]
# animal cells [4] = conditions: animal cell test; cited from earlier work
# [5] = Experiment 1, 1 day of storage at 40° C.
# [6] = Experiment 1, 4 days of storage at 40° C.
# [7] = Experiment 1, 5 days of storage at 40° C.
# [8] = Experiment 1, 8 days of storage at 40° C.
# [9] = Experiment 1, 11 days of storage at 40° C.
# [10] = Experiment 1, 15 days of storage at 40° C.
molecule,measurement,setting,value
3(2)-t-Butyl-4-hydroxyanisole [BHA],"Absorbance, auto-oxidation of linoleic acid",[1]; [5],0.0000
same,"Absorbance, auto-oxidation of linoleic acid",[1]; [6],0.0105
same,"Absorbance, auto-oxidation of linoleic acid",[1]; [7],0.0111
same,"Absorbance, auto-oxidation of linoleic acid",[1]; [8],0.0313
same,"Absorbance, auto-oxidation of linoleic acid",[1]; [9],0.0559
same,"Absorbance, auto-oxidation of linoleic acid",[1]; [10],0.0752
same,"Absorbance, auto-oxidation of linoleic acid","[1]; Experiment 2, 1 day of storage at 40° C.",0.0001
same,"Absorbance, auto-oxidation of linoleic acid","[1]; Experiment 2, 4 days of storage at 40° C.",0.0088
same,"Absorbance, auto-oxidation of linoleic acid","[1]; Experiment 2, 5 days of storage at 40° C.",0.0121
same,"Absorbance, auto-oxidation of linoleic acid","[1]; Experiment 2, 8 days of storage at 40° C.",0.0269
same,"Absorbance, auto-oxidation of linoleic acid","[1]; Experiment 2, 14 days of storage at 40° C.",0.0609
same,"Absorbance, auto-oxidation of linoleic acid","[1]; Experiment 2, 18 days of storage at 40° C.",0.0866
OCC1OC2O[C@@H]3[C@@H](c4ccc(O)c(O)c4)Oc4cc(O)cc(O)c4[C@@H]3OC2C(O)C1O (stereo partly shown) [Aceronidin],50% radical scavenging activity concentration,[2],80 ppm
same,"skin-whitening effect (effect of inhibiting tyrosinase), in words",tyrosinase,almost no skin-whitening effect (effect of inhibiting tyrosinase)
same,Tyrosinase-inhibiting activity,"tyrosinase; L-DOPA substrate, 37° C., sample concentration not given",3.1%
O=C[C@H](O)[C@@H](O)[C@@H](O)[C@H](O)C(=O)O [galacturonic acid],Effect of suppressing melanin pigment generation,animal cells [3],has not been confirmed
"O=C1O[C@H]([C@@H](O)CO)C(O)=C1O [vitamin C, ascorbic acid]","Antioxidative activities for lipids (FIG. 15), in words",[1]; specimen concentration 0.02% (W/W),no antioxidative activities at all
same,"Antioxidative activities for lipids (FIG. 15), in words",[1]; specimen concentration 0.04% (W/W),no antioxidative activities at all
same,"ΔL value of UV-irradiated skin (pigmentation), FIG. 21, in words",brown guinea pigs,measurement values were almost the same
(±)-α-Tocopherol,50% radical scavenging activity concentration,[2],127 ppm
same,"Absorbance, auto-oxidation of linoleic acid",[1]; [5],0.0195
same,"Absorbance, auto-oxidation of linoleic acid",[1]; [6],0.0827
same,"Absorbance, auto-oxidation of linoleic acid",[1]; [7],0.1014
same,"Absorbance, auto-oxidation of linoleic acid",[1]; [8],0.1326
same,"Absorbance, auto-oxidation of linoleic acid",[1]; [9],0.1551
same,"Absorbance, auto-oxidation of linoleic acid",[1]; [10],0.1796
oligogalacturonic acid,Effect of suppressing melanin production,animal cells [4],exerted an effect of suppressing melanin production
polygalacturonic acid,Effect of suppressing melanin pigment generation,animal cells [3],has not been confirmed
